Measured values: patent US20260078348A1, “MULTIPLE MYELOMA MICROORGANOSPHERES” (Xilis, Inc., priority 2022, published 2026)

Experiments:
MM MOS [1] = experiment: Caspase 3/7 green dye apoptosis monitoring of drug-treated MM MOS (INCUCYTE imaging); format: cell-based, human; conditions: for MM MOS death (Caspase 3/7 signal): day 11 MM MOS, 5 μM lenalidomide or 2 nM bortezomib for 92 hours, vs negative control
Experimental: Studies were conducted to determine the effects of various MM drugs on the MM MOS. For example, day 11 MM MOS were treated with 5 μM lenalidomide or 2 nM bortezomib for 92 hours, with no medium change during the drug treatment. Caspase 3/7 green dye was included in the medium to monitor apoptosis, and fluorescence was measured.

MM MOS [2] = experiment: Live/dead dye (calcein AM / ethidium homodimer) imaging of drug-treated MM MOS; format: cell-based, human; conditions: for MM MOS response to treatment: 10 μM for 4 days, live/dead dye images, n=3, p<0.05 by t-test; for live/dead ratio: 10 μM, 4 days of treatment beginning on day 9 of MOS generation, compared to negative control
Experimental: Further studies were conducted using 10 μM carfilzomib or 10 μM selinexor treatment beginning on day 9 of MOS generation from MM patient bone marrow biopsy samples. After 4 days of treatment, live/dead dyes (calcein AM-green and ethidium homodimer-red) were added to the wells for a 30-minute incubation.

Row | Compound | MM MOS death (Caspase 3/7 signal) (MM MOS [1]) | MM MOS response to treatment (MM MOS [2]) | live/dead ratio (MM MOS [2]) | time at which MM MOS responded after onset of treatment (MM MOS [1]; 5 μM lenalidomide, INCUCYTE images taken every 2 hours) [h]
1 | CC(C)C[C@H](NC(=O)[C@H](Cc1ccccc1)NC(=O)c1cnccn1)B(O)O [bortezomib] | not | – | – | –
2 | CC(C)C[C@H](NC(=O)[C@H](CCc1ccccc1)NC(=O)CN1CCOCC1)C(=O)N[C@@H](Cc1ccccc1)C(=O)N[C@@H](CC(C)C)C(=O)[C@@]1(C)CO1 [carfilzomib] | – | responded | significantly reduced | –
3 | Nc1cccc2c1CN(C1CCC(=O)NC1=O)C2=O (stereo not shown) [lenalidomide] | increased | – | – | 24
4 | O=C(/C=C\n1cnc(-c2cc(C(F)(F)F)cc(C(F)(F)F)c2)n1)NNc1cnccn1 [selinexor] | – | responded | significantly reduced | –
